In patent publication US11912710B2 (UPPTHERA, INC., priority 2021, dated 2024):
Read-outs that look alike come from different tables or passages of the source.

How the values were obtained:
Assay type in all cases: cell-based
PLK1 = biological target: T1, PLK1 (Homo sapiens, UniProt P53350); assay: Luciferase assay for PLK1 in HeLa LgBit (Plk1-HiBit KI) cell line; settings: 300 nM compound, luminescence after 9 hours, read-out: Activity: ratio of the luminescense value of compound treatment group to DMSO treatment group
T1 construct: endogenous in cells; host or cells: HeLa LgBit (Plk1-HiBit KI): HeLa cells stably expressing LgBit, with HiBit knocked into the endogenous Plk1 locus by CRISPR/Cas9
T1 sequence (P53350 whole entry): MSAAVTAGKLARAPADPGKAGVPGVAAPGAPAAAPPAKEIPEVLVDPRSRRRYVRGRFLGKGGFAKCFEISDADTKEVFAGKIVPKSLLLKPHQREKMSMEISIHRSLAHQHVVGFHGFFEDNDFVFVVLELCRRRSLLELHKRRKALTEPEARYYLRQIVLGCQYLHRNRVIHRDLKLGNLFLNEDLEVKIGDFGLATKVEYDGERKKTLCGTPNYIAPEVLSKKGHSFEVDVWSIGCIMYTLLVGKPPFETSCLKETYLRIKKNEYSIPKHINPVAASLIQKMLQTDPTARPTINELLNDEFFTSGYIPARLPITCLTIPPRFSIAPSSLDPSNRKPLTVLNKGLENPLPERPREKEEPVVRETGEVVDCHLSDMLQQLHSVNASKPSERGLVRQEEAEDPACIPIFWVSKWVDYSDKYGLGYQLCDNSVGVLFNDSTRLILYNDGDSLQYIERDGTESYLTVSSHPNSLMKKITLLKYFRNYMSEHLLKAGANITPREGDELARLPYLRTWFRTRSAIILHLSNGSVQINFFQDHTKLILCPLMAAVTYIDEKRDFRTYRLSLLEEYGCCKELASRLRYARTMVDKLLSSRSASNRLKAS
Procedure: 2. Luciferase Assay for PLK1
(1) Preparation and Culture of HeLa LgBit (Plk1-HiBit KI) Cell Line
A HeLa cell line in which the LgBit vector was transfected and expressed stably was prepared. Then, after constructing gRNA and donor to express the HiBit amino acid sequence behind the C-terminal of the Plk1 gene, which was inherent in the cell, it was inserted into the cell together with a vector capable of expressing CRISPR/Cas9. Only the cells in which the insertion was completed and knock-in had progressed were selected, sub-cultured and used.
(2) Treatment of Compounds of the Present Invention and Method of Luciferase Assay
In the case of HeLa LgBit (Plk1-HiBit KI), the compounds were treated after being released after thymidine block, and the process was as follows. Thymidine (Sigma-Aldrich Cat. No. T9250-5G) was completely dissolved in DW and used in the experiment. For thymidine block, the products were treated with 2 mM of thymidine and then incubated for 24 hours. For release and chemical treatment, the medium was suctioned and washed with 1×PBS. TrypLE™ was added and incubated in 37° C. CO2 incubator for 5 min. Cells neutralized by adding complete media were counted through a counter. For each well of a 96-well culture plate (SPL), 3.3×10^4 cells and a total medium volume of 150 μL were seeded and incubated in a CO2 incubator.
Each cell line was incubated in a CO2 incubator for 18 hours, and Endurazine was added to each well to make up 4% of the total volume. After adding the compound of the present invention in a 96-well white plate (SPL) to a concentration of 300 nM, the wavelength of the plate reader (BMG Labtech, CLARIOstar Plus) was set to […], and then the luminescence was tracked in real time.
In Table 2, Activity represents the ratio of the luminescense value of each Exemplary Compound treatment group to DMSO treatment group (+++: <0.3, ++<0.6, +<0.7).

NCI-H526 cell line = assay: Cell viability assay for H526 cell line; settings: Homo sapiens, NCI-H526, 120 h; H526 cells, 5 days, EZ-Cytox, 3000 nM to 0.46 nM
Procedure: 3. Cell Viability Assay for H526 Cell Line
(1) Culture of NCI-H526 Cell Line
(2) Treatment of Compounds of the Present Invention and Method of Cell Viability Assay
After treating the compound to each well to make the total volume of 200 μL, it was cultured in a CO2 incubator (Thermo Fisher Science, Cat. No. 4111) for 5 days.
The absorbance of the completely cultured sample was measured by setting the wavelength of a plate reader (BMG Labtech, CLARIOstar Plus) to […], and was measured after shaking for 3 minutes in a plate reader before measurement.
In Table 3, Activity represents IC50 value of each Exemplary Compound treatment group to H526 cell line (A: <30 nM, B: <50 nM, C: <100 nM, D: <200 nM, E: <400 nM).

MRC-5 cell line = assay: Cell viability assay (cytotoxicity) for MRC-5 cell line; settings: for IC50: Homo sapiens, MRC5, 120 h
Procedure: 4. Cell Viability Assay for MRC-5 Cell Line
(1) Culture of MRC-5 Cell Line
Passage of cultured cells was maintained within P15.
(2) Treatment of Compounds of the Present Invention
Then, it was cultured in 37° C.
(3) Cytotoxicity Experiment
CO2 incubator for 4 hours.
Cell Viability Assay for MRC-5 cell line

[1] = MRC-5 normal cell line, 5 days, EZ-Cytox, 10000 nM to 1.52 nM, read-out: Activity: IC50 value to MRC-5 cell line (Exemplary Compounds)
[2] = read-out: Activity: IC50 value to MRC-5 cell line (Comparative Compounds)

remaining activity at 0.3 µM (PLK1) | SMILES | IC50 (NCI-H526 cell line) | other results
< 60% | COc1cc(C(=O)NN2CC3(CCN(CC4CCN(c5ccc(C6CCC(=O)NC6=O)cc5F)CC4)CC3)C2)ccc1Nc1ncc2c(n1)N(C1CCCC1)CC(F)(F)C(=O)N2C (stereo not shown) [Compound 44] | < 30 nM | 
< 30% | COc1cc(C(=O)NC2CCC(CN(C)C3CCN(c4ccc(C5CCC(=O)NC5=O)cc4F)CC3)CC2)ccc1Nc1ncc2c(n1)N(C1CCCC1)CC(F)(F)C(=O)N2C (stereo not shown) [Compound 8, 4-((9-cyclopentyl-7,7-difluoro-5-methyl-6-oxo-6,7,8,9-tetrahydro-5H-pyrimido[4,5-b][1,4]diazepin-2-yl)amino)-N-((1r,4r)-4-(((1-(4-(2,6-dioxopiperidin-3-yl)-2-fluorophenyl)piperidin-4-yl)(methyl)amino)methyl)cyclohexyl)-3-methoxybenzamide] | < 30 nM | IC50 (MRC-5 cell line; [1]): > 10 µM
< 30% | COc1cc(C(=O)NN2CCC([C@@H](C)CN3CCN(c4ccc(C5CCC(=O)NC5=O)cc4F)CC3)CC2)ccc1Nc1ncc2c(n1)N(C1CCCC1)CC(F)(F)C(=O)N2C (stereo partly drawn) [Compound 19, 4-((9-cyclopentyl-7,7-difluoro-5-methyl-6-oxo-6,7,8,9-tetrahydro-5H-pyrimido[4,5-b][1,4]diazepin-2-yl)amino)-N-(4-((2R)-1-(4-(4-(2,6-dioxopiperidin-3-yl)-2-fluorophenyl)piperazin-1-yl)propan-2-yl)piperidin-1-yl)-3-methoxybenzamide] | < 30 nM | IC50 (MRC-5 cell line; [1]): > 10 µM
< 60% | COc1cc(C(=O)NN2CCC(N3CC4(CCN(c5ccc(C6CCC(=O)NC6=O)cc5F)CC4)C3)CC2)ccc1Nc1ncc2c(n1)N(C1CCCC1)CC(F)(F)C(=O)N2C (stereo not shown) [Compound 18, 4-((9-cyclopentyl-7,7-difluoro-5-methyl-6-oxo-6,7,8,9-tetrahydro-5H-pyrimido[4,5-b][1,4]diazepin-2-yl)amino)-N-(4-(7-(4-(2,6-dioxopiperidin-3-yl)-2-fluorophenyl)-2,7-diazaspiro[3.5]nonan-2-yl)piperidin-1-yl)-3-methoxybenzamide] | < 30 nM | 
< 60% | COc1cc(C(=O)NN2CCC(C3CN(c4ccc(C5CCC(=O)NC5=O)cc4F)C3)CC2)ccc1Nc1ncc2c(n1)N(C1CCCC1)CC(F)(F)C(=O)N2C (stereo not shown) [Compound 43, 4-((9-cyclopentyl-7,7-difluoro-5-methyl-6-oxo-6,7,8,9-tetrahydro-5H-pyrimido[4,5-b][1,4]diazepin-2-yl)amino)-N-(4-(1-(4-(2,6-dioxopiperidin-3-yl)-2-fluorophenyl)azetidin-3-yl)piperidin-1-yl)-3-methoxybenzamide] | < 50 nM | 
< 30% | COc1cc(C(=O)NC2CC23CCN(CC2CCN(c4ccc(C5CCC(=O)NC5=O)cc4F)CC2)CC3)ccc1Nc1ncc2c(n1)N(C1CCCC1)CC(F)(F)C(=O)N2C (stereo not shown) [Compound 23, 4-((9-cyclopentyl-7,7-difluoro-5-methyl-6-oxo-6,7,8,9-tetrahydro-5H-pyrimido[4,5-b][1,4]diazepin-2-yl)amino)-N-(6-((1-(4-(2,6-dioxopiperidin-3-yl)-2-fluorophenyl)piperidin-4-yl)methyl)-6-azaspiro[2.5]octan-1-yl)-3-methoxybenzamide] | < 30 nM | 
< 60% | COc1cc(C(=O)NC2CC3(CCN(CC4CCN(c5cccc(C6CCC(=O)NC6=O)c5)CC4)CC3)C2)ccc1Nc1ncc2c(n1)N(C1CCCC1)CC(F)(F)C(=O)N2C (stereo not shown) [Compound 41, 4-((9-cyclopentyl-7,7-difluoro-5-methyl-6-oxo-6,7,8,9-tetrahydro-5H-pyrimido[4,5-b][1,4]diazepin-2-yl)amino)-N-(7-((1-(3-(2,6-dioxopiperidin-3-yl)phenyl)piperidin-4-yl)methyl)-7-azaspiro[3.5]nonan-2-yl)-3-methoxybenzamide] | < 30 nM | 
< 30% | COc1cc(OCC2CC3(CCN(CC4CCN(c5ccc(C6CCC(=O)NC6=O)cc5F)CC4)CC3)C2)ccc1Nc1ncc2c(n1)N(C1CCCC1)CC(F)(F)C(=O)N2C (stereo not shown) [Compound 17, 3-(4-(4-((2-((4-((9-cyclopentyl-7,7-difluoro-5-methyl-6-oxo-6,7,8,9-tetrahydro-5H-pyrimido[4,5-b][1,4]diazepin-2-yl)amino)-3-methoxyphenoxy)methyl)-7-azaspiro[3.5]nonan-7-yl)methyl)piperidin-1-yl)-3-fluorophenyl)piperidine-2,6-dione] | < 200 nM | 
< 30% | COc1cc(C(=O)NC2CCN(C3CN(c4ccc(C5CCC(=O)NC5=O)cc4F)C3)CC2)ccc1Nc1ncc2c(n1)N(C1CCCC1)CC(F)(F)C(=O)N2C (stereo not shown) [Compound 42, 4-((9-cyclopentyl-7,7-difluoro-5-methyl-6-oxo-6,7,8,9-tetrahydro-5H-pyrimido[4,5-b][1,4]diazepin-2-yl)amino)-N-(1-(1-(4-(2,6-dioxopiperidin-3-yl)-2-fluorophenyl)azetidin-3-yl)piperidin-4-yl)-3-methoxybenzamide] | < 30 nM | 
< 30% | COc1cc(C(=O)NC2CC3(CCN(C[C@@H]4CCN(c5ccc(C6CCC(=O)NC6=O)cc5F)C[C@@H]4F)CC3)C2)ccc1Nc1ncc2c(n1)N(C1CCCC1)CC(F)(F)C(=O)N2C (stereo partly drawn) [Compound 46, −((9-cyclopentyl-7,7-difluoro-5-methyl-6-oxo-6,7,8,9-tetrahydro-5H-pyrimido[4,5-b][1,4]diazepin-2-yl)amino)-N-(7-(((3R,4S)-1-(4-(2,6-dioxopiperidin-3-yl)-2-fluorophenyl)-3-fluoropiperidin-4-yl)methyl)-7-azaspiro[3.5]nonan-2-yl)-3-methoxybenzamide] |  | 
 | CC[C@@H]1C(=O)N(C)c2cnc(Nc3ccc(C(=O)N[C@H]4CC[C@H](N5CCN(CC6CC6)CC5)CC4)cc3OC)nc2N1C(C)C [Comparative Compound 3, Volasertib, reference compound] |  | IC50 (MRC-5 cell line; [2]): 2.94 µM
 | COc1cc(C(=O)NC2CCN(C)CC2)c(F)cc1Nc1ncc2c(n1)N(C1CCCC1)CC(F)(F)C(=O)N2C [Comparative Compound 4, TAK960, reference compound] |  | IC50 (MRC-5 cell line; [2]): 9.15 µM
< 60% | COc1cc(C(=O)NC2CC3(CCN(CC4CCN(c5cccc(N6CCC(=O)NC6=O)c5)CC4)CC3)C2)ccc1Nc1ncc2c(n1)N(C1CCCC1)CC(F)(F)C(=O)N2C [Compound 34, 4-((9-cyclopentyl-7,7-difluoro-5-methyl-6-oxo-6,7,8,9-tetrahydro-5H-pyrimido[4,5-b][1,4]diazepin-2-yl)amino)-N-(7-((1-(3-(2,4-dioxotetrahydropyrimidin-1(2H)-yl)phenyl)piperidin-4-yl)methyl)-7-azaspiro[3.5]nonan-2-yl)-3-methoxybenzamide] | < 30 nM | 
 | CC[C@@H]1C(=O)N(C)c2cnc(Nc3ccc(C(=O)NC4CCN(C)CC4)cc3OC)nc2N1C1CCCC1 [Comparative Compound 2, BI2536, reference compound] |  | IC50 (MRC-5 cell line; [2]): 3.09 µM
 | CC[C@@H]1C(=O)N(C)c2cnc(Nc3ccc(C(=O)NCCOCCOCCNc4cccc5c4C(=O)N(C4CCC(=O)NC4=O)C5=O)cc3OC)nc2N1C1CCCC1 (stereo partly shown) [Comparative Compound 1, reference compound] |  | IC50 (MRC-5 cell line; MRC-5 normal cell line, 5 days, EZ-Cytox, 10000 nM to 1.52 nM, read-out: Activity: IC50 value to MRC-5 cell line (Comparative Compounds)): 0.107 µM; cytotoxicity in normal cell line (MRC-5 cell line; MRC-5 normal cell line, statement in words): high level of cytotoxicity
